Experimental data reported in patent US20080188508A1, “Methods and Therapies for Potentiating a Therapeutic Action of an Opioid Receptor Agonist and Inhibiting and/or Reversing Tolerance to Opioid Receptor Agonists” (priority 2007, published 2008).

Key:
Sprague Dawley rats = test system: Sprague Dawley rats
Experimental: Experiments were performed in accordance with guidelines of the Canadian Council on Animal Care using protocols approved by the University Animal Care Committee. Adult male Sprague Dawley rats (200-250 grams) (Charles River, Quebec) were housed in separate cages and maintained on a 12 hour light/12 hour dark cycle with access to food and water ad libitum.
Animals were anaesthetized with halothane (4%) and implanted with an indwelling intrathecal catheter. A small puncture was made in the atlanto-occipital membrane and a polythene catheter (PE-10; 7.5 cm long) inserted caudally so that the tip rested on the lumbar enlargement of the spinal cord. The rostral end was exteriorized to facilitate drug administration. Surgical wounds were closed with sutures and animals allowed to recover for one week. Animals showing signs of forelimb or hindlimb paralysis were excluded from experiments. Drugs were injected in a 10 μl volume (i.t.) followed by 10 μl of 0.9% saline to flush the catheter.
Response to an acute thermal nociceptive stimulus was assessed in rats using the tail-flick test. Radiant heat was applied to the dorsal surface of the tail using an analgesic meter and the time latency for removal of the tail from the stimulus was recorded. […] A cutoff of 10 seconds was used in both studies to prevent tissue injury.
Response to an acute mechanical nociceptive stimulus was assessed using the paw-pressure test. Using an air-filled inverted syringe, pressure was gradually applied to the dorsal surface of the hindpaw until a paw withdrawal response was observed and the value (mmHg) recorded. A cut-off of 300 mmHg was used to prevent tissue injury.
Tail-flick and paw-pressure nociceptive tests were performed both before and 30 minutes after drug injection. […] Nociceptive testing was performed both before and 30 minutes after each injection.
The day following ED50 testing, spinal cords from animals were processed for CGRP immunohistochemical staining as described infra.
Tail-flick and paw-pressure values were converted to a maximum percentage effect (M.P.E.): M.P.E.=100×[post-drug response−baseline response]/[maximum response−baseline response]. Data in the figures are expressed as mean±s.e.mean. ED50 values were determined using a non-linear regression analysis (Prism 2, GraphPad Software Inc., San Diego, Calif., USA). Statistical significance (p<0.05) was determined using a one-way analysis of variance (ANOVA) followed by a Student Newman-Keuls post hoc test for multiple comparisons between groups.

[1] = dose of AM-251 used in these experiments; Trang et al. Pain 2006; cited from earlier work
[2] = test system: CGRP-immunoreactive neurons in adult rat dorsal root ganglion cultures
Experimental: In this method, rats were decapitated and DRGs removed aseptically from the cervical, thoracic, lumbar, and sacral regions of the spinal cord. […] DRGs were minced, digested with 0.25% collagenase (Calbiochem) in Ham's F12 Medium (GIBCO/BRL) for 90 minutes at 37° C., and then trypsinized (0.25%) (GIBCO/BRL) for 1.5 hours at 37° C. Next, the tissues were triturated with a 19 gauge syringe in Dulbecco's Modified Eagle Medium (DMEM, GIBCO/BRL) containing 1% HEPES buffer, penicillin/streptomycin (1:100), and 10% Fetal Bovine Serum (GIBCO/BRL). Samples were then centrifuged at 500 g for 10 minutes. The resulting pellet was resuspended with DMEM and filtered through a cell strainer (70 μm, Falcon). DRG cells were seeded in a poly-D-lysine coated 96-well culture plate (Falcon) at a density of 5×10^4 cells/well and incubated at 37° C. with 5% CO2 and 95% O2 for the duration of the experiment. […]
To examine the effects of drug treatment on CGRP-immunoreactivity in the cultured DRG cells, the number of CGRP immunopositive cells was counted using an inverted phase microscope (Olympus CX2). […] The field of view in which CGRP-IR cells were counted measured 1 mm^2. […]
For the cultured DRG studies, the mean±s.e.mean of CGRP-immunopositive cells was obtained from 4 wells per treatment group in each of 3 separate cell cultures. Data are expressed as a percent of saline control wells. […]

[3] = i.t. morphine 15 μg, first injection, both tail-flick and paw-pressure test

Cc1c(C(=O)NN2CCCCC2)nn(-c2ccc(Cl)cc2Cl)c1-c1ccc(I)cc1 [AM-251, 1-(2,4-dichlorophenyl)-5-(4-iodophenyl)-4-methyl-N-1-piperidinyl-1H-pyrazole-3-carboxamide]
effect on basal nociceptive responses (Sprague Dawley rats; AM-251 3.2 μg administered alone over 5 days): did not have an effect | morphine ED50 value versus chronic saline treatment (Sprague Dawley rats; AM-251 3.2 μg alone for 5 days): did not significantly alter | effect on basal nociceptive response (Sprague Dawley rats; AM-251 3.2 μg in the absence of morphine on days 6-10): no effect | effect on the increase in morphine ED50 values (Sprague Dawley rats; AM-251 (1.6 μg or 3.2 μg) co-administered with i.t. morphine for 5 days): completely blocked the increase in ED50 values | effect on the increase in morphine ED50 value (Sprague Dawley rats; acute paradigm, co-treatment of AM-251 with morphine): suppressed the increase in ED50 value | morphine ED50 value versus saline-only control (Sprague Dawley rats; acute paradigm, drug without the other drug: single morphine injection then saline, or AM-251 3.2 μg alone): did not change | effect on baseline antinociceptive responses (Sprague Dawley rats; i.t. injections of AM-251 alone, acute paradigm, either test): no effect | morphine ED50 value versus saline-only animals (Sprague Dawley rats; morphine days 1-5 discontinued, then saline (row morphine) or AM-251 alone (row AM-251) on days 6-10): comparable to saline-only | effect on anandamide-induced antinociception [1]: selectively block | influence on acute morphine-induced analgesia [1]: no influence

CN1CC[C@]23c4c5ccc(O)c4O[C@H]2[C@@H](O)C=C[C@H]3[C@H]1C5.O=S(=O)(O)O [morphine, Morphine sulphate]
antinociceptive effect on daily injection for 10 days (Sprague Dawley rats; daily i.t. morphine (3.2 μg as printed) for 10 days, by day 5): progressive decline in morphine antinociception to baseline levels | time by which antinociceptive response returned to baseline (Sprague Dawley rats; [3]): ≤ 90 min | time of maximal antinociceptive response post-injection (Sprague Dawley rats; [3]): 30 min | increase in number of CGRP-immunopositive neurons compared to vehicle-treated controls ([2]; chronic morphine (20 μM) treatment for 5-days): approximately 57%

C=CCN1CC[C@]23c4c5ccc(O)c4O[C@H]2C(=O)CC[C@@]3(O)[C@H]1C5 [naloxone]
effect on the morphine-induced increase in CGRP-immunopositive neurons ([2]; pre-treatment with naloxone 10 μM, morphine 20 μM): blocked
